# From patent publication US8461328B2, “Tricyclic heterocyclic compounds, compositions and methods of use thereof” (Genentech, Inc., priority 2010, dated 2013)
# Legend:
# Type in all cases: biochemical
# TYK2 = molecular target: T1, TYK2 (Homo sapiens, UniProt P29597); assay: TYK2 inhibition (Table 4)
# T1 construct: made in house; host or cells: SF9 insect cells (baculovirus)
# T1 sequence (P29597 873-1187): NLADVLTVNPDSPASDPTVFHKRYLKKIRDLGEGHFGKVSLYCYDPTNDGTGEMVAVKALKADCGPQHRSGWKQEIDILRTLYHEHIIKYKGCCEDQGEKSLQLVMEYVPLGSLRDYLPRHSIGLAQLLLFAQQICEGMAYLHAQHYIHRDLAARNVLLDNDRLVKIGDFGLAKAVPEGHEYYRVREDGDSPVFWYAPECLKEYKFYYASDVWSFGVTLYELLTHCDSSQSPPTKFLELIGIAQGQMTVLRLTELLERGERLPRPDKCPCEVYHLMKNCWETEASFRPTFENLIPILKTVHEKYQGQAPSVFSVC
# JAK3 = molecular target: T2, JAK3 (Homo sapiens, UniProt P52333); assay: JAK3 inhibition (Table 4); conditions: read-out: JAK3 Ki
# T2 construct: made in house; host or cells: SF9 insect cells (baculovirus)
# T2 sequence (P52333 783-1124): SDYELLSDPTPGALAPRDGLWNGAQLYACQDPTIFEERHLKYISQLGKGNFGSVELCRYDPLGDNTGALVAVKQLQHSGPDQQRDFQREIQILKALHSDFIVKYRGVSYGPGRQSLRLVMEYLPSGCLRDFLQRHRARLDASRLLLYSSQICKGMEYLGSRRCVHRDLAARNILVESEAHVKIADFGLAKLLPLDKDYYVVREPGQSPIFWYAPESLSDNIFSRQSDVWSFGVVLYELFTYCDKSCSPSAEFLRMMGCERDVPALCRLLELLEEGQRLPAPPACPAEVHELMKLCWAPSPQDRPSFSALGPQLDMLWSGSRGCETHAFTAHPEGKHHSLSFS
# JAK2 = molecular target: T3, JAK2 (Homo sapiens, UniProt O60674); assay: JAK2 inhibition (Table 4); conditions: read-out: JAK2 Ki
# T3 construct: made in house; host or cells: SF9 insect cells (baculovirus)
# T3 sequence (O60674 812-1132): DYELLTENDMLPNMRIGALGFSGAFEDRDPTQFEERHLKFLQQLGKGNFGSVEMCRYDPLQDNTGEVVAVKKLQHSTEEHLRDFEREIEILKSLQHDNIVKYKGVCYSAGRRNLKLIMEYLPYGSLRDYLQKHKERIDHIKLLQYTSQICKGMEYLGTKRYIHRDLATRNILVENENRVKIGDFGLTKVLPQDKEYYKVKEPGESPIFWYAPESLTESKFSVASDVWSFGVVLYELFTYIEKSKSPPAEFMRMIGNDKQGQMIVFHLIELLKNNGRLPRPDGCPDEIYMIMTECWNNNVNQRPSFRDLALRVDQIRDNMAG
SMILES,Ki (TYK2) [nM],Ki (JAK3) [nM],Ki (JAK2) [nM]
"CC1(n2cnc3cnc4[nH]ccc4c32)CCN(CC(F)(F)F)CC1 [Example 752, 1-[4-Methyl-1-(2,2,2-trifluoro-ethyl)-piperidin-4-yl]-1,6-dihydro-1,3,5,6-tetraaza-as-indacene]",264,240,97.2
"N[C@H]1CC[C@H](n2cnc3cnc4[nH]ccc4c32)CC1 [Example 108, Trans 4-(6H-1,3,5,6-tetraaza-as-indacen-1-yl)-cyclohexylamine]",75.2,35,24.6
"CC(C)(C)OC(=O)N[C@@H]1CC[C@H](n2cnc3cnc4[nH]ccc4c32)C1 [Example 135, [(1R,3S)-3-(6H-1,2,3,5,6-Tetraaza-as-indacen-1-yl)-cyclopentyl]-carbamic acid tert-butyl ester]",161,90.6,20.3
"CS(=O)(=O)NCc1nc2cnc3[nH]ccc3c2n1C1CCNCC1 [Example 206, N-(1-Piperidin-4-yl-1,6-dihydro-1,2,3,5,6-tetraaza-as-indacen-2-ylmethyl)-methanesulfonamide]",565,3050,812
"CS(=O)(=O)NCc1nc2cnc3[nH]ccc3c2n1C1CCCCC1 [Example 200, N-(1-Cyclohexyl-1,6-dihydro-1,2,3,5,6-tetraaza-as-indacen-2-ylmethyl)-methanesulfonamide]",19.3,75.1,45.4
"CC1(n2cnc3cnc4[nH]ccc4c32)CCN(Cc2cncnc2)CC1 [Example 322, 1-(4-Methyl-1-pyrimidin-5-ylmethyl-piperidin-4-yl)-1,6-dihydro-1,3,5,6-tetraaza-as-indacene]",426,84.8,25.5
"CN(C)CC(=O)N1CCC(n2cnc3cnc4[nH]ccc4c32)CC1 [Example 36, 2-Dimethylamino-1-[4-(6H-1,3,5,6-tetraaza-as-indacen-1-yl)-piperidin-1-yl]ethanone]",1190,1620,242
"c1cc2c(ncc3ncn([C@H]4CC[C@H](NCC5CC5)CC4)c32)[nH]1 [Example 574, trans Cyclopropylmethyl-[4-(6H-1,3,5,6-tetraaza-as-indacen-1-yl)-cyclohexyl]-amine]",125,232,54.6
"CS(=O)(=O)NCc1nc2cnc3[nH]ccc3c2n1C1CCN(CCF)CC1 [Example 913, N-{1-[1-(2-Fluoro-ethyl)-piperidin-4-yl]-1,6-dihydro-1,3,5,6-tetraaza-as-indacen-2-ylmethyl}-methanesulfonamide]",116,61.4,54.7
"CC(C)(C)OC(=O)NC1CCC(n2cnc3cnc4[nH]ccc4c32)C1 (racemic) [Example 138, Racemic cis[3-(6H-1,2,3,5,6-Tetraaza-as-indacen-1-yl)-cyclopentyl]-carbamic acid tert-butyl ester]",222,143,27.7
"O=S(=O)(c1ccccc1)N1CCC(n2cnc3cnc4[nH]ccc4c32)CC1 [Example 55, 1-(1-Benzenesulfonyl-piperidin-4-yl)-1,6-dihydro-1,3,5,6-tetraaza-as-indacene]",31,334,6.59
"N#Cc1cccc(CN[C@H]2CC[C@H](n3cnc4cnc5[nH]ccc5c43)CC2)c1 [Example 219, 3-{[4-(6H-1,3,5,6-Tetraaza-as-indacen-1-yl)-cyclohexylamino]-methyl}-benzonitrile]",37.3,89,11.2
"N#CCC(=O)N1CCC(n2cnc3cnc4[nH]ccc4c32)CC1 [Example 33, 3-Oxo-3-[4-(6H-1,3,5,6-tetraaza-as-indacen-1-yl)-piperidin-1-yl]propionitrile]",143,162,35
"CN1CCC[C@H]1C(=O)N1CCC(n2cnc3cnc4[nH]ccc4c32)CC1 [Example 78, ((S)-1-Methyl-pyrrolidin-2-yl)-[4-(6H-1,3,5,6-tetraaza-as-indacen-1-yl)-piperidin-1-yl]methanone]",436,1120,137
"CC(C)(C)OC(=O)NC1CCC(n2cnc3cnc4[nH]ccc4c32)C1 (racemic) [Example 137, Racemic trans [3-(6H-1,2,3,5,6-Tetraaza-as-indacen-1-yl)-cyclopentyl]-carbamic acid tert-butyl ester]",120,37.1,9.51
"COC(=O)N(C)[C@H]1CC[C@H](n2cnc3cnc4[nH]ccc4c32)CC1 [Example 143, Trans Methyl-[4-(6H-1,2,3,5,6-tetraaza-as-indacen-1-yl)-cyclohexyl]-carbamic acid methyl ester]",51.2,182,7.03

SMILES,Ki (TYK2) [nM],Ki (JAK3) [nM],Ki (JAK2) [nM]
"CC(C)(CF)N1CCC(n2c(CNS(C)(=O)=O)nc3cnc4[nH]ccc4c32)CC1 [Example 693, N-{1-[1-(2-Fluoro-1,1-dimethyl-ethyl)-piperidin-4-yl]-1,6-dihydro-1,2,3,5,6-tetraaza-as-indacen-2-ylmethyl}-methanesulfonamide]",332,303,72.1
"N#CCCN[C@H]1CC[C@H](n2cnc3cnc4[nH]ccc4c32)CC1 [Example 275, 3-[4-(6H-1,3,5,6-Tetraaza-as-indacen-1-yl)-cyclohexylamino]-propionitrile]",36.4,47.4,11.5
"O=C(CC(F)(F)F)NC1CCC(n2nnc3cnc4[nH]ccc4c32)C1 (racemic) [Example 619, Racemic trans 3,3,3-trifluoro-N-[3-(6H-1,2,3,5,6-pentaaza-as-indacen-1-yl)-cyclopentyl]-propionamide]",118,31.1,14.6
"CS(=O)(=O)NCc1nc2cnc3[nH]ccc3c2n1[C@H]1CCCOC1 [Example 855, (S)—N-[1-(Tetrahydro-pyran-3-yl)-1,6-dihydro-1,3,5,6-tetraaza-as-indacen-2-ylmethyl]-methanesulfonamide]",112,493,117
"CS(=O)(=O)NCCc1nc2cnc3[nH]ccc3c2n1C1CCCCC1 [Example 514, N-[2-(1-Cyclohexyl-1,6-dihydro-1,3,5,6-tetraaza-as-indacen-2-yl)-ethyl]-methanesulfonamide]",15.8,28.2,24.3
"c1cc2c(ncc3ncn([C@H]4CC[C@H](N5CCOCC5)CC4)c32)[nH]1 [Example 594, Trans 1-(4-Morpholin-4-yl-cyclohexyl)-1,6-dihydro-1,2,3,5,6-tetraaza-as-indacene]",76.6,334,22.7
"CCS(=O)(=O)NCCc1nc2cnc3[nH]ccc3c2n1C1CCCCC1 [Example 512, Ethanesulfonic acid [2-(1-cyclohexyl-1,6-dihydro-1,3,5,6-tetraaza-as-indacen-2-yl)-ethyl]-amide]",22,61.7,28.3
"CC(C)(C)OC(=O)N[C@H]1CC[C@@H](n2cnc3cnc4[nH]ccc4c32)CC1 [Example 288, [4-(6H-1,3,5,6-Tetraaza-as-indacen-1-yl)-cyclohexyl]-carbamic acid tert-butyl ester]",110,206,11.9
"O=C(c1ccccc1)N1CCC(n2cnc3cnc4[nH]ccc4c32)CC1 [Example 35, Phenyl-[4-(6H-1,3,5,6-tetraaza-as-indacen-1-yl)-piperidin-1-yl]methanone]",165,692,26.1
"COC(=O)NC1CCC(n2cnc3cnc4[nH]ccc4c32)C1 (racemic) [Example 734, [3-(6H-1,3,5,6-Tetraaza-as-indacen-1-yl)-cyclopentyl]-carbamic acid methyl ester]",28.5,54.3,8.06
"N[C@H]1CC[C@@H](n2cnc3cnc4[nH]ccc4c32)CC1 [Example 289, 4-(6H-1,3,5,6-Tetraaza-as-indacen-1-yl)-cyclohexylamine]",107,79.5,80.2
"CC(=O)NCc1nc2cnc3[nH]ccc3c2n1C1CCCCC1 [Example 918, N-(1-Cyclohyl-1,6-dihydro-1,3,5,6-tetraaza-as-indacen-2-ylmethyl)-acetamide]",30.1,60,93.9
"CS(=O)(=O)N[C@H]1CC[C@H](n2cnc3cnc4[nH]ccc4c32)CC1 [Example 105, Trans N-[4-(6H-1,3,5,6-tetraaza-as-indacen-1-yl)-cyclohexyl]-methanesulfonamide]",16.4,23.1,3.53
"CS(=O)(=O)NCc1nc2cnc3[nH]ccc3c2n1C1CCN(CCC#N)CC1 [Example 208, N-{1-[1-(2-Cyano-ethyl)-piperidin-4-yl]-1,6-dihydro-1,2,3,5,6-tetraaza-as-indacen-2-ylmethyl}-methanesulfonamide]",151,171,43.1
"Cc1nc2cnc3[nH]ccc3c2n1[C@H]1CC[C@@H](C(C)(C)O)CC1 [Example 958, Cis-2-[4-(2-Methyl-6H-1,3,5,6-tetraaza-as-indacen-1-yl)-cyclohexyl]-propan-2-ol]",14.3,36.8,5.13
"N#CCCN1CCC(n2cnc3cnc4[nH]ccc4c32)CC1 [Example 58, 3-[4-(6H-1,3,5,6-Tetraaza-as-indacen-1-yl)-piperidin-1-yl]propionitrile]",3.57,16.4,1
